Experiment: In vitro human liver microsomal stability assay
Format: in vitro ADME
Settings: human liver microsomes 2 mg per mL protein, NADPH-generating system, 1 μM test compound, 37±1° C., 0-240 min, change relative to non-deuterated d0 (Example 1); for Half-Life % change over d0: degradation half-life
Procedure: In Vitro Liver Microsomal Stability Assay
Human liver microsomal stability assays were conducted at 2 mg per mL liver microsome protein with an NADPH-generating system consisting of NADP (1 mM, pH 7.4), […] (5 mM, pH 7.4), and glucose-6-phosphate dehydrogenase (I unit/mL).
Test compounds were prepared as solutions in DMSO and added to the assay mixture (1 μM, final concentration in incubation) to be incubated at 37±1° C. Reactions were initiated with the addition of cofactor and were stopped at 0, 60, 120, or 240 min after cofactor addition with stop reagent (0.2 mL acetonitrile). Samples were centrifuged (920×g for 10 min at 10° C.) in 96-well plates. Supernatant fractions were analyzed by LC-MS/MS to determine the percent remaining and estimate the degradation half-life of the test compounds.

Structure (SMILES)	Clearance % change over d0 [%]	Half-Life % change over d0 [%]
[2H]C([2H])([2H])C([2H])(Oc1ccc(-c2nc(-c3cccc4c3CC[C@@H]4NCCO)no2)cc1C#N)C([2H])([2H])[2H] [Example 3, 5-[3-[(1S)-1-[(2-hydroxyethyl)amino]-2,3-dihydro-1H-inden-4-yl]-1,2,4-oxadiazol-5-yl]-2-[(^2H7)propan-2-yloxy]benzonitrile]	7	0.0
[2H]C(C)(C)Oc1ccc(-c2nc(-c3cccc4c3CC[C@@H]4NC([2H])([2H])C([2H])([2H])O)no2)cc1C#N [Example 4, 5-[3-[(1S)-1-[[2-hydroxy(^2H4)ethyl]amino]-2,3-dihydro-1H-inden-4-yl]-1,2,4-oxadiazol-5-yl]-2-[(2-^2H)propan-2-yloxy]benzonitrile]	5	−4.6
[2H]C([2H])([2H])C([2H])(Oc1ccc(-c2nc(-c3cccc4c3CC[C@@H]4NC([2H])([2H])C([2H])([2H])O)no2)cc1C#N)C([2H])([2H])[2H] [Example 5, 5-[3-[(1S)-1-[[2-hydroxy(^2H7)ethyl]amino]-2,3-dihydro-1H-inden-4-yl]-1,2,4-oxadiazol-5-yl]-2-[(^2H4)propan-2-yloxy]benzonitrile]	11	0.0

Next, values leading:

Clearance % change over d0 [%]	Half-Life % change over d0 [%]	Structure (SMILES)
0.00	0.0	CC(C)Oc1ccc(-c2nc(-c3cccc4c3CC[C@@H]4NCCO)no2)cc1C#N [Example 1, 5-[3-[(1S)-1-[(2-hydroxyethyl)amino]-2,3-dihydro-1H-inden-4-yl]-1,2,4-oxadiazol-5-yl]-2-(propan-2-yloxy)benzonitrile, reference compound]
1	−9.0	[2H]C(C)(C)Oc1ccc(-c2nc(-c3cccc4c3CC[C@@H]4NCCO)no2)cc1C#N [Example 2, 5-[3-[(1S)-1-[(2-hydroxyethyl)amino]-2,3-dihydro-1H-inden-4-yl]-1,2,4-oxadiazol-5-yl]-2-[(2-^2H)propan-2-yloxy]benzonitrile]
2	17.9	[2H]C(C)(C)Oc1ccc(-c2nc(-c3cccc4c3CC[C@]4([2H])NCCO)no2)cc1C#N [Example 6, 5-[3-[(1S)-1-[(2-hydroxyethyl)amino]-2,3-dihydro(1-^2H)-1H-inden-4-yl]-1,2,4-oxadiazol-5-yl]-2-[(2-^2H)propan-2-yloxy]benzonitrile]

From patent US20180016244A1, “DEUTERIUM-SUBSTITUTED OXADIAZOLES” (Auspex Pharmaceuticals, Inc., priority 2015, published 2018)
